Results published in ChEMBL document CHEMBL3351995, “β-Nitro substituted carboxylic acids and their cytotoxicity” (Bioorg Med Chem Lett, 2014).
Calls of active or inactive are those of the source. The rule behind the calls is not given here.

Tests used:
A2780 = test: Cytotoxicity against human A2780 cells by SRB assay; assay type: functional, cell-based
518A2 [1] = test: Induction of apoptosis in human 518A2 cells assessed as necrotic cells at 35 uM after 48 or 72 hrs by annexin V-FITC/propidium iodide staining-based flow cytometry; assay type: functional
518A2 [2] = test: Induction of apoptosis in human 518A2 cells assessed as normal cells at 35 uM after 48 or 72 hrs by annexin V-FITC/propidium iodide staining-based flow cytometry; assay type: functional
A549 = test: Cytotoxicity against human A549 cells by SRB assay; assay type: functional, cell-based
8505C = test: Cytotoxicity against human 8505C cells by SRB assay; assay type: functional, cell-based
518A2 [3] = test: Induction of apoptosis in human 518A2 cells assessed as apoptotic ells at 35 uM after 48 or 72 hrs by annexin V-FITC/propidium iodide staining-based flow cytometry; assay type: functional
[4] = Cytotoxicity against human A253 cells by SRB assay; assay type: functional, cell-based
[5] = Cytotoxicity against human 518A2 cells by SRB assay; assay type: functional, cell-based
[6] = Cytotoxicity against human SW1736 cells by SRB assay; assay type: functional, cell-based; settings: SW-1736
[7] = Cytotoxicity against human DLD1 cells by SRB assay; assay type: functional, cell-based; settings: DLD-1
MCF7 = test: Cytotoxicity against human MCF7 cells by SRB assay; assay type: functional, cell-based
518A2 [8] = test: Induction of apoptosis in human 518A2 cells assessed as secondary necrotic cells at 35 uM after 48 or 72 hrs by annexin V-FITC/propidium iodide staining-based flow cytometry; assay type: functional
518A2 [9] = test: Induction of apoptosis in human 518A2 cells assessed as secondary necrotic cells at 35 uM after 24 hrs by fluorescence microscopy; assay type: functional, cell-based
[10] = Cytotoxicity against human Lipo cells by SRB assay; assay type: functional, cell-based
[11] = Cytotoxicity against mouse NIH/3T3 cells by SRB assay; assay type: cell-based; settings: NIH3T3

| SMILES | IC50 (A2780) [µM] | Activity (518A2 [1]) [%] | Activity (518A2 [2]) [%] | IC50 (A549) [µM] | IC50 (8505C) [µM] | Activity (518A2 [3]) [%] | IC50 [4] [µM] | IC50 [5] [µM] | IC50 [6] [µM] | IC50 [7] [µM] | IC50 (MCF7) [µM] | Activity (518A2 [8]) [%] | Activity (518A2 [9]) | IC50 [10] [µM] | IC50 [11] [µM] |
| --- | --- | --- | --- | --- | --- | --- | --- | --- | --- | --- | --- | --- | --- | --- | --- |
| CCOC(=O)C(C[N+](=O)[O-])c1ccc(Cl)cc1 (stereo not given) | 1.6 | 2.883 | 22.72 | 14.9 | > 30 | 3.224 | > 30 | 17.3 | > 30 | 10.9 | 22.8 | 12.222 | Active | 19.2 | 7.7 |
| NC(=O)C(C[N+](=O)[O-])c1ccc(Cl)cc1 (stereo not given) | > 30 | – | – | > 30 | > 30 | – | > 30 | > 30 | > 30 | > 30 | > 30 | – | – | > 30 | > 30 |
| CCOC(=O)C(C[N+](=O)[O-])c1ccc(F)cc1 (stereo not given) | > 30 | – | – | > 30 | > 30 | – | > 30 | > 30 | > 30 | > 30 | > 30 | – | – | > 30 | > 30 |
| CCOC(=O)C(C[N+](=O)[O-])c1cccc(C(F)(F)F)c1 (stereo not given) | 6.3 | – | – | 13.6 | 20.7 | – | 7.2 | 8.6 | 4.7 | 8.2 | 7.6 | – | – | 10.9 | 10.2 |
| CCOC(=O)C(C[N+](=O)[O-])c1ccc(C)cc1 (stereo not given) | > 30 | – | – | > 30 | > 30 | – | > 30 | > 30 | > 30 | > 30 | > 30 | – | – | > 30 | > 30 |
| CN(C)C(=O)C(C[N+](=O)[O-])c1ccc(Cl)cc1 (stereo not given) | > 30 | – | – | > 30 | > 30 | – | > 30 | > 30 | > 30 | > 30 | > 30 | – | – | > 30 | > 30 |
| CCOC(=O)C(C[N+](=O)[O-])c1ccc(C(F)(F)F)cc1 (stereo not given) | 6.6 | – | – | 9.9 | 13.8 | – | 9.8 | 15.2 | 6.3 | 11 | 6.7 | – | – | 15.2 | 9.7 |
| CCOC(=O)C(C)(C[N+](=O)[O-])c1ccc(Cl)cc1 (stereo not given) | > 30 | – | – | > 30 | > 30 | – | > 30 | > 30 | > 30 | > 30 | > 30 | – | – | > 30 | > 30 |
| CCOC(=O)C(C[N+](=O)[O-])c1cccc(Cl)c1 (stereo not given) | 14.4 | – | – | 3.5 | 14.9 | – | 10.6 | 7.3 | 8.3 | 14.5 | 17.9 | – | – | 19.5 | 21.1 |
| CCOC(=O)C(C[N+](=O)[O-])c1ccccc1 (stereo not given) | > 30 | – | – | > 30 | > 30 | – | > 30 | > 30 | > 30 | > 30 | > 30 | – | – | > 30 | > 30 |
| CCOC(=O)C(CN)c1ccc(Cl)cc1 (stereo not given) | 22.3 | – | – | > 30 | > 30 | – | > 30 | > 30 | > 30 | > 30 | > 30 | – | – | > 30 | 25.7 |
| O=C(Cc1ccccc1)C(C[N+](=O)[O-])c1ccc(Cl)cc1 (stereo not given) | 12.1 | – | – | > 30 | > 30 | – | 21.4 | 23.9 | 23.9 | 22.5 | 18.2 | – | – | 28.9 | 9.2 |
| CCOC(=O)C(C[N+](=O)[O-])c1cccc(OC(F)(F)F)c1 (stereo not given) | 2.2 | – | – | 19.9 | 22.1 | – | 11.8 | 14.5 | 16.6 | > 30 | > 30 | – | – | > 30 | > 30 |
| CCOC(=O)C(C[N+](=O)[O-])c1ccccc1Cl (stereo not given) | 9.9 | – | – | > 30 | > 30 | – | > 30 | > 30 | > 30 | > 30 | > 30 | – | – | > 30 | > 30 |
| COC(=O)C(C[N+](=O)[O-])c1ccc(Cl)cc1 (stereo not given) | 2.5 | – | – | 10.5 | 11.6 | – | 5.4 | 5.8 | 5.8 | 5.2 | 3.4 | – | – | 8.7 | 2.1 |
| CCOC(=O)C(C[N+](=O)[O-])c1ccc(OC)cc1 (stereo not given) | > 30 | – | – | > 30 | > 30 | – | > 30 | > 30 | > 30 | > 30 | > 30 | – | – | > 30 | > 30 |
| C=C(C#N)c1ccc(Cl)cc1 | 15.4 | – | – | > 30 | > 30 | – | > 30 | > 30 | > 30 | > 30 | 14.2 | – | – | > 30 | 23.5 |
